Source: ChEMBL document CHEMBL5579838, “Design, synthesis and antitumor activity of a novel FGFR2-selective degrader to overcome resistance of the FGFR2V564F gatekeeper mutation based on a pan-FGFR inhibitor” (Eur J Med Chem, 2024)
pIC50: −log10 of the molar value.

Tested on: KATO III stomach cancer cell line
Test: cells
Conditions: Homo sapiens, 72 h
Description: Antiproliferative activity against FGFR2 amplified human KATO III cells measured after 3 days by MTT assay

| Structure (SMILES) | pIC50 |
| --- | --- |
| C[C@@H](Oc1ccc2[nH]nc(/C=C/c3cnn(CCNC(=O)CCCCNc4ccc5c(c4)C(=O)N(C4CCC(=O)NC4=O)C5=O)c3)c2c1)c1c(Cl)cncc1Cl (stereo not given in full) | 7.70 |
| C[C@@H](Oc1ccc2[nH]nc(/C=C/c3cnn(CCNc4ccc5c(c4)C(=O)N(C4CCC(=O)NC4=O)C5=O)c3)c2c1)c1c(Cl)cncc1Cl (stereo not given in full) | 8.14 |
| C[C@@H](Oc1ccc2[nH]nc(/C=C/c3cnn(CCNC(=O)CNc4cccc5c4C(=O)N(C4CCC(=O)NC4=O)C5=O)c3)c2c1)c1c(Cl)cncc1Cl (stereo not given in full) | 7.65 |
| C[C@@H](Oc1ccc2[nH]nc(/C=C/c3cnn(CCNC(=O)CCCCNc4cccc5c4C(=O)N(C4CCC(=O)NC4=O)C5=O)c3)c2c1)c1c(Cl)cncc1Cl (stereo not given in full) | 7.76 |
| C[C@@H](Oc1ccc2[nH]nc(/C=C/c3cnn(CCNC(=O)/C=C/c4cccc(C(F)(F)F)c4)c3)c2c1)c1c(Cl)cncc1Cl | 7.41 |
| COc1ccc(C(=O)/C=C/C(=O)NCCn2cc(/C=C/c3n[nH]c4ccc(O[C@H](C)c5c(Cl)cncc5Cl)cc34)cn2)cc1 | 7.99 |
| C[C@@H](Oc1ccc2[nH]nc(/C=C/c3cnn(CCNC(=O)/C=C/C(=O)c4ccc(F)cc4)c3)c2c1)c1c(Cl)cncc1Cl | 7.92 |
| Cc1ncsc1-c1ccc(CNC(=O)[C@@H]2C[C@@H](O)CN2C(=O)[C@@H](NC(=O)CCCC(=O)NCCn2cc(/C=C/c3n[nH]c4ccc(O[C@H](C)c5c(Cl)cncc5Cl)cc34)cn2)C(C)(C)C)cc1 | < 7.30 |
| C[C@@H](Oc1ccc2[nH]nc(/C=C/c3cnn(CCNC(=O)/C=C/C(=O)c4ccc(Br)cc4)c3)c2c1)c1c(Cl)cncc1Cl | 7.33 |
| C[C@@H](Oc1ccc2[nH]nc(/C=C/c3cnn(CCNC(=O)CCNc4ccc5c(c4)C(=O)N(C4CCC(=O)NC4=O)C5=O)c3)c2c1)c1c(Cl)cncc1Cl (stereo not given in full) | 7.83 |
| C[C@@H](Oc1ccc2[nH]nc(/C=C/c3cnn(CCNc4cccc5c4C(=O)N(C4CCC(=O)NC4=O)C5=O)c3)c2c1)c1c(Cl)cncc1Cl (stereo not given in full) | 8.17 |
| C[C@@H](Oc1ccc2[nH]nc(/C=C/c3cnn(CCNC(=O)/C=C/c4ccc(C(F)(F)F)cc4)c3)c2c1)c1c(Cl)cncc1Cl | 7.38 |
| C[C@@H](Oc1ccc2[nH]nc(/C=C/c3cnn(CCNC(=O)CCNc4cccc5c4C(=O)N(C4CCC(=O)NC4=O)C5=O)c3)c2c1)c1c(Cl)cncc1Cl (stereo not given in full) | 8.38 |
| C[C@@H](Oc1ccc2[nH]nc(/C=C/c3cnn(CCNC(=O)/C=C/c4cc(C(F)(F)F)cc(C(F)(F)F)c4)c3)c2c1)c1c(Cl)cncc1Cl | < 7.30 |
| C[C@@H](Oc1ccc2[nH]nc(/C=C/c3cnn(CCNC(=O)CCCNc4ccc5c(c4)C(=O)N(C4CCC(=O)NC4=O)C5=O)c3)c2c1)c1c(Cl)cncc1Cl (stereo not given in full) | 7.98 |
| Cc1ncsc1-c1ccc(CNC(=O)[C@@H]2C[C@@H](O)CN2C(=O)[C@@H](NC(=O)CCCCC(=O)NCCn2cc(/C=C/c3n[nH]c4ccc(O[C@H](C)c5c(Cl)cncc5Cl)cc34)cn2)C(C)(C)C)cc1 | < 7.30 |
| C[C@@H](Oc1ccc2[nH]nc(/C=C/c3cnn(CCNC(=O)CNc4ccc5c(c4)C(=O)N(C4CCC(=O)NC4=O)C5=O)c3)c2c1)c1c(Cl)cncc1Cl (stereo not given in full) | 7.33 |
| Cc1ncsc1-c1ccc(CNC(=O)[C@@H]2C[C@@H](O)CN2C(=O)[C@@H](NC(=O)CCC(=O)NCn2cc(/C=C/c3n[nH]c4ccc(O[C@H](C)c5c(Cl)cncc5Cl)cc34)cn2)C(C)(C)C)cc1 | < 7.30 |
| C[C@@H](Oc1ccc2[nH]nc(/C=C/c3cnn(CCNC(=O)/C=C/C(=O)c4ccccc4)c3)c2c1)c1c(Cl)cncc1Cl | 7.81 |
| Cc1ncsc1-c1ccc(CNC(=O)[C@@H]2C[C@@H](O)CN2C(=O)[C@@H](NC(=O)CCCCCC(=O)NCCn2cc(/C=C/c3n[nH]c4ccc(O[C@H](C)c5c(Cl)cncc5Cl)cc34)cn2)C(C)(C)C)cc1 | < 7.30 |
| C[C@@H](Oc1ccc2[nH]nc(/C=C/c3cnn(CCNC(=O)CCCCCNc4cccc5c4C(=O)N(C4CCC(=O)NC4=O)C5=O)c3)c2c1)c1c(Cl)cncc1Cl (stereo not given in full) | 8.31 |
| Cc1ncsc1-c1ccc(CNC(=O)[C@@H]2C[C@@H](O)CN2C(=O)[C@@H](NC(=O)CCC(=O)NCCn2cc(/C=C/c3n[nH]c4ccc(O[C@H](C)c5c(Cl)cncc5Cl)cc34)cn2)C(C)(C)C)cc1 | < 7.30 |
| C[C@@H](Oc1ccc2[nH]nc(/C=C/c3cnn(CCNC(=O)/C=C/C(=O)c4ccc(Cl)cc4)c3)c2c1)c1c(Cl)cncc1Cl | < 7.30 |
| C[C@@H](Oc1ccc2[nH]nc(/C=C/c3cnn(CCNC(=O)CCCNc4cccc5c4C(=O)N(C4CCC(=O)NC4=O)C5=O)c3)c2c1)c1c(Cl)cncc1Cl (stereo not given in full) | 8.09 |

Target: Fibroblast growth factor receptor 2 (Homo sapiens, UniProt P21802)
Test: not given
Conditions: not given

Fibroblast growth factor receptor 2, sequence (P21802 whole entry): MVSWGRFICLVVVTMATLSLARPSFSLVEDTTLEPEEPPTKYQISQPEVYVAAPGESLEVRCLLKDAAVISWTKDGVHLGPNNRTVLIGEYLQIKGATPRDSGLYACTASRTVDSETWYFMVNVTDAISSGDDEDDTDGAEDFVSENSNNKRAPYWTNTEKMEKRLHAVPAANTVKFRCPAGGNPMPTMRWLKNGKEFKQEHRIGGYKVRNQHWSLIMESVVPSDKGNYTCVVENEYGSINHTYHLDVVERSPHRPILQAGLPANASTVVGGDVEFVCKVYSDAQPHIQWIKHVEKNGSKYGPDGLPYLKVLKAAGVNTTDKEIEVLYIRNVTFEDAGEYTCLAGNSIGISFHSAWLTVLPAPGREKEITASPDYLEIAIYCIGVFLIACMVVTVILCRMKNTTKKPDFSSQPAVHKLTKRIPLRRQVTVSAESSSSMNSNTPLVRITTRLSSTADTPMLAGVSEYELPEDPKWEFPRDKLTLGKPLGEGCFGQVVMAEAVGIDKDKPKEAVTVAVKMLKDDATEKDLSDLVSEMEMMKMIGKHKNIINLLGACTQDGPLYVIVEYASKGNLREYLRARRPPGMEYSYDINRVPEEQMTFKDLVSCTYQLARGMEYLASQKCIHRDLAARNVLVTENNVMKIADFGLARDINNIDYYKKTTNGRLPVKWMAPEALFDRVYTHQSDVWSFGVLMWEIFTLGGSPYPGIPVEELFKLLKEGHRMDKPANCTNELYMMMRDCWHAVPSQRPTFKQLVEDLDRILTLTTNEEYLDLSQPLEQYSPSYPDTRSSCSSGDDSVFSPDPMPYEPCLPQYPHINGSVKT

| Structure (SMILES) | pIC50 |
| --- | --- |
| C[C@@H](Oc1ccc2[nH]nc(/C=C/c3cnn(CCN)c3)c2c1)c1c(Cl)cncc1Cl | 8.68 |
